# Tests used:
# [1] = Cytotoxicity against HUVEC cells assessed as inhibition of cell growth incubated for 72 hrs by MTT assay; format: toxicity, cell-based; conditions: human
# [2] = Cytotoxicity against HEK293T cells assessed as inhibition of cell growth incubated for 72 hrs by MTT assay; format: toxicity, cell-based, HEK-293T; conditions: human
# HGC-27 = experiment: Antiproliferative activity against human HGC-27 cells assessed as inhibition of cell growth incubated for 72 hrs by MTT assay; format: functional, cell-based; conditions: HGC-27, 72 h
# [3] = Cytotoxicity against human GES1 cells assessed as inhibition of cell growth incubated for 72 hrs by MTT assay; format: toxicity, cell-based
# [4] = target: T1, von Hippel-Lindau disease tumor suppressor/Vascular endothelial growth factor receptor 2 (Homo sapiens, UniProt P35968+P40337); experiment: PROTAC activity at VHL/VEGFR2 in human HGC-27 cells assessed as reduction in VEGFR2 protein level incubated for 24 hrs by Western blot analysis; format: cell-based
# Target sequence in this assay (P35968 whole entry): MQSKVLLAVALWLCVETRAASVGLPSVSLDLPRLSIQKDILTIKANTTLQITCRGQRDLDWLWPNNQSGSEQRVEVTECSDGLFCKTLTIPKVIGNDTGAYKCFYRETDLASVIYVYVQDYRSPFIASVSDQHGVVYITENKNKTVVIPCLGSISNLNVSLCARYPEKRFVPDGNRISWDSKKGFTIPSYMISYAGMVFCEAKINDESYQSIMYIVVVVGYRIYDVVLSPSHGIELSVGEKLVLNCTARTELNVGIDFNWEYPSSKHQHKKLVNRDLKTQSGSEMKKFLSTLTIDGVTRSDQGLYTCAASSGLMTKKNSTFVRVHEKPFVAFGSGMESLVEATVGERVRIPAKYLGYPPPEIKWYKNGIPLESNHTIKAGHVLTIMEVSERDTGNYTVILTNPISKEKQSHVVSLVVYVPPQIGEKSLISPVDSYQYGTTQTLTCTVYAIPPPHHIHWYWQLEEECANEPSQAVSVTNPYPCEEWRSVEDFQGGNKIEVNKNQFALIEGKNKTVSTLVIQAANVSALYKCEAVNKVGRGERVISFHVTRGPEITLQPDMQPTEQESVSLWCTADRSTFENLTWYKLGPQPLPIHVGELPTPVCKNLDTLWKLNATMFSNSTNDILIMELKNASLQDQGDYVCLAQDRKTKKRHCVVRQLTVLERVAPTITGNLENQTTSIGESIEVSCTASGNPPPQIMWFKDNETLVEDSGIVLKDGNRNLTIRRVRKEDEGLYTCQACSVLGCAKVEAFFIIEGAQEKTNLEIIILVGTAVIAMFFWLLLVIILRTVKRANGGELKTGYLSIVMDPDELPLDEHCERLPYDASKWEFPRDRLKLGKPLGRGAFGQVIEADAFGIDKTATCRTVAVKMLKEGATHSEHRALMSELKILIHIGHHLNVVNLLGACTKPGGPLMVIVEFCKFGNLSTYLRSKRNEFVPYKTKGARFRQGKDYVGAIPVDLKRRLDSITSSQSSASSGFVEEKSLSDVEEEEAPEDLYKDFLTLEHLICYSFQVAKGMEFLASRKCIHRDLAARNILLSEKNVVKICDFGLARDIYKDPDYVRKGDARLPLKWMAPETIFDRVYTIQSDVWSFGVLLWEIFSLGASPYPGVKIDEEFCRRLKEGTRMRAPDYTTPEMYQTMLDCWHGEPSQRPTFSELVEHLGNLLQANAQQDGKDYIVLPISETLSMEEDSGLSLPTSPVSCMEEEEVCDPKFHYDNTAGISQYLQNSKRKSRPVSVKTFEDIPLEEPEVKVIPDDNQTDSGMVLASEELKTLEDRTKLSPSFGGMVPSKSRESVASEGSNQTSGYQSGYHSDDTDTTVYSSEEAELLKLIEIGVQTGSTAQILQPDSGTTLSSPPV
# Target sequence in this assay (P40337 whole entry): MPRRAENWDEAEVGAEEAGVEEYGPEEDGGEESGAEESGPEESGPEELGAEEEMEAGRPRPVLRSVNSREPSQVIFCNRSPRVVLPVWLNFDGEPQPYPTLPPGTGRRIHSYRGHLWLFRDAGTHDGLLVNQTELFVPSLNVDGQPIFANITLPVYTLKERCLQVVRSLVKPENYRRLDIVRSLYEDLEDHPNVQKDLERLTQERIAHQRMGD
# [5] = target: T1, von Hippel-Lindau disease tumor suppressor/Vascular endothelial growth factor receptor 2; experiment: PROTAC activity at VHL/VEGFR2 in human HGC-27 cells assessed as reduction in VEGFR2 protein level by measuring maximal efficacy incubated for 24 hrs by Western blot analysis relative to control; format: cell-based
# Target sequence in this assay (P35968 20-1356 limits assumed): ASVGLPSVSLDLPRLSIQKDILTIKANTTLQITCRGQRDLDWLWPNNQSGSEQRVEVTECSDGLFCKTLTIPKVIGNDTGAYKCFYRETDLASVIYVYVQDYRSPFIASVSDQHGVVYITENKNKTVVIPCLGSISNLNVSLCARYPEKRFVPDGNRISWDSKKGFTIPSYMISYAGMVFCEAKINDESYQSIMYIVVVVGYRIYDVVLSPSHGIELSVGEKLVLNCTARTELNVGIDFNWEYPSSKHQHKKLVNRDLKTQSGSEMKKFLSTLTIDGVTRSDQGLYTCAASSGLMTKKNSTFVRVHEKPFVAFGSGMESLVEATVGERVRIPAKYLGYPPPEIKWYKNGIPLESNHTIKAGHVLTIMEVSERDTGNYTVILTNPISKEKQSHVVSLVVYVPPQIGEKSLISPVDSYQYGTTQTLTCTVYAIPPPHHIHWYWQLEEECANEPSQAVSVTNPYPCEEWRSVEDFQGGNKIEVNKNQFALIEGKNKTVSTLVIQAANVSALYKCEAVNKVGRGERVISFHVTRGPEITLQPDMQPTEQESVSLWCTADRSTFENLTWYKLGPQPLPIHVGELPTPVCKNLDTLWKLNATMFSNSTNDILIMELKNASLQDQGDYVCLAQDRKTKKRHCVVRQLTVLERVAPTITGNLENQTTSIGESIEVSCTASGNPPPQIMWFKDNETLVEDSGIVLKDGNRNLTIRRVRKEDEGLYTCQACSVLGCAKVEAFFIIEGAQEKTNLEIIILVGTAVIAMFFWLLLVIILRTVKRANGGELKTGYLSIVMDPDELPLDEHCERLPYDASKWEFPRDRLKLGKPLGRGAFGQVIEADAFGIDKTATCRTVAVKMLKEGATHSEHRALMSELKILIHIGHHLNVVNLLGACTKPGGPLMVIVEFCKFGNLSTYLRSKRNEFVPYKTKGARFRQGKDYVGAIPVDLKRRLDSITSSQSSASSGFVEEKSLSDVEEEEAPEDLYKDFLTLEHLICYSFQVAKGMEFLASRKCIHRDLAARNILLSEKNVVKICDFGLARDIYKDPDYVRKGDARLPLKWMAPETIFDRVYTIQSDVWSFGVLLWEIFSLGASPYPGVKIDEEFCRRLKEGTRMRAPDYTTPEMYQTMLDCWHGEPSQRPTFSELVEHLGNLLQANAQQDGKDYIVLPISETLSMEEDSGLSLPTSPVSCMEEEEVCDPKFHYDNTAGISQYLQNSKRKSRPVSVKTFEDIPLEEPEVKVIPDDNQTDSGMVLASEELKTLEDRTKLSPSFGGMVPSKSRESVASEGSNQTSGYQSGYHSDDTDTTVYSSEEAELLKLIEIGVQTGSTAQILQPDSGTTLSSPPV
# Target sequence in this assay (P40337 whole entry partner): as the sequence (P40337 whole entry) above
Compound,IC50 at 72 h [1],IC50 at 72 h [2],IC50 (HGC-27),IC50 at 72 h [3],EC50 [4],Emax [5]
Cc1ccc(NC(=O)Cn2cc(-c3ccc4c(NC(=O)c5ccc(NC(=O)CCCCC(=O)N6CCN(CCCC(=O)N[C@H](C(=O)N7C[C@H](O)C[C@H]7C(=O)NCc7ccc(-c8scnc8C)cc7)C(C)(C)C)CC6)cc5)n[nH]c4c3)cn2)cc1C(F)(F)F,10.9 µM,38.2 µM,30.9 µM,25.4 µM,,
Cc1ccc(NC(=O)Cn2cc(-c3ccc4c(NC(=O)c5ccc(NC(=O)CCCCC(=O)N6CCN(CCCCCC(=O)N[C@H](C(=O)N7C[C@H](O)C[C@H]7C(=O)NCc7ccc(-c8scnc8C)cc7)C(C)(C)C)CC6)cc5)n[nH]c4c3)cn2)cc1C(F)(F)F,> 50 µM,> 100 µM,23.9 µM,26.8 µM,,
Cc1ccc(NC(=O)Cn2cc(-c3ccc4c(NC(=O)c5ccc(N6CCN(CCCCCCCC(=O)N[C@H](C(=O)N7C[C@H](O)C[C@H]7C(=O)NCc7ccc(-c8scnc8C)cc7)C(C)(C)C)CC6)cc5)n[nH]c4c3)cn2)cc1C(F)(F)F,> 50 µM,> 100 µM,22.6 µM,> 100 µM,> 3.33 µM,
Cc1ccc(NC(=O)Cn2cc(-c3ccc4c(NC(=O)c5ccc(N)cc5)nn(C(=O)CCCCCCCCC(=O)N[C@H](C(=O)N5C[C@H](O)C[C@H]5C(=O)NCc5ccc(-c6scnc6C)cc5)C(C)(C)C)c4c3)cn2)cc1C(F)(F)F,5.5 µM,44.9 µM,12.1 µM,3.36 µM,> 3.33 µM,
Cc1ccc(NC(=O)Cn2cc(-c3ccc4c(NC(=O)c5ccc(NC(=O)CCC(=O)N[C@H](C(=O)N6C[C@H](O)C[C@H]6C(=O)NCc6ccc(-c7scnc7C)cc6)C(C)(C)C)cc5)n[nH]c4c3)cn2)cc1C(F)(F)F,28.2 µM,48.2 µM,> 50 µM,47.4 µM,,
Cc1ccc(NC(=O)Cn2cc(-c3ccc4c(NC(=O)c5ccc(NC(=O)CCCCC(=O)N6CCN(CCCCC(=O)N[C@H](C(=O)N7C[C@H](O)C[C@H]7C(=O)NCc7ccc(-c8scnc8C)cc7)C(C)(C)C)CC6)cc5)n[nH]c4c3)cn2)cc1C(F)(F)F,9.36 µM,38.7 µM,23.9 µM,23.1 µM,0.64 µM,38.5%
Cc1ccc(NC(=O)Cn2cc(-c3ccc4c(NC(=O)c5ccc(N6CCN(C(=O)NCCCCCCCCC(=O)N[C@H](C(=O)N7C[C@H](O)C[C@H]7C(=O)NCc7ccc(-c8scnc8C)cc7)C(C)(C)C)CC6)cc5)n[nH]c4c3)cn2)cc1C(F)(F)F,> 100 µM,> 100 µM,> 50 µM,> 100 µM,,
Cc1ccc(NC(=O)Cn2cc(-c3ccc4c(NC(=O)c5ccc(NC(=O)CCCCCC(=O)N[C@H](C(=O)N6C[C@H](O)C[C@H]6C(=O)NCc6ccc(-c7scnc7C)cc6)C(C)(C)C)cc5)n[nH]c4c3)cn2)cc1C(F)(F)F,> 50 µM,> 100 µM,7.26 µM,31.3 µM,> 3.33 µM,
Cc1ccc(NC(=O)Cn2cc(-c3ccc4c(NC(=O)c5ccc(N6CCN(CCCCCCC(=O)N[C@H](C(=O)N7C[C@H](O)C[C@H]7C(=O)NCc7ccc(-c8scnc8C)cc7)C(C)(C)C)CC6)cc5)n[nH]c4c3)cn2)cc1C(F)(F)F,> 50 µM,38.6 µM,5.5 µM,22.4 µM,> 3.33 µM,38.2%
Cc1ccc(NC(=O)Cn2cc(-c3ccc4c(NC(=O)c5ccc(N6CCN(CCCCC(=O)N[C@H](C(=O)N7C[C@H](O)C[C@H]7C(=O)NCc7ccc(-c8scnc8C)cc7)C(C)(C)C)CC6)cc5)n[nH]c4c3)cn2)cc1C(F)(F)F,> 50 µM,> 100 µM,> 50 µM,60.3 µM,> 3.33 µM,8.7%
Cc1ccc(NC(=O)Cn2cc(-c3ccc4c(NC(=O)c5ccc(NC(=O)CCCCC(=O)N6CCN(CCCCCCC(=O)N[C@H](C(=O)N7C[C@H](O)C[C@H]7C(=O)NCc7ccc(-c8scnc8C)cc7)C(C)(C)C)CC6)cc5)n[nH]c4c3)cn2)cc1C(F)(F)F,29.6 µM,24.1 µM,20.4 µM,51.4 µM,> 3.33 µM,31%
Cc1ccc(NC(=O)Cn2cc(-c3ccc4c(NC(=O)c5ccc(NC(=O)CCCCCCCCCC(=O)N[C@H](C(=O)N6C[C@H](O)C[C@H]6C(=O)NCc6ccc(-c7scnc7C)cc6)C(C)(C)C)cc5)n[nH]c4c3)cn2)cc1C(F)(F)F,> 50 µM,> 100 µM,55.6 µM,12 µM,,
CNC(=O)c1cc(Oc2ccc(NC(=O)Nc3ccc(Cl)c(C(F)(F)F)c3)cc2)ccn1 [SORAFENIB],9.66 µM,6.38 µM,5.15 µM,9.47 µM,,
Cc1ccc(NC(=O)Cn2cc(-c3ccc4c(NC(=O)c5ccc(NC(=O)CCCCCCCCC(=O)N[C@H](C(=O)N6C[C@@H](O)C[C@H]6C(=O)NCc6ccc(-c7scnc7C)cc6)C(C)(C)C)cc5)n[nH]c4c3)cn2)cc1C(F)(F)F,12.2 µM,> 100 µM,2.09 µM,5.13 µM,> 3.33 µM,
Cc1ccc(NC(=O)Cn2cc(-c3ccc4c(NC(=O)c5ccc(NC(=O)CCCCC(=O)N6CCN(CCCCCCCC(=O)N[C@H](C(=O)N7C[C@H](O)C[C@H]7C(=O)NCc7ccc(-c8scnc8C)cc7)C(C)(C)C)CC6)cc5)n[nH]c4c3)cn2)cc1C(F)(F)F,25 µM,31.9 µM,44.7 µM,47.9 µM,,
Cc1ccc(NC(=O)Cn2cc(-c3ccc4c(NC(=O)c5ccc(NC(=O)CCCCCCCC(=O)N[C@H](C(=O)N6C[C@H](O)C[C@H]6C(=O)NCc6ccc(-c7scnc7C)cc6)C(C)(C)C)cc5)n[nH]c4c3)cn2)cc1C(F)(F)F,> 50 µM,> 100 µM,10.7 µM,10.9 µM,> 3.33 µM,13.5%
Cc1ccc(NC(=O)Cn2cc(-c3ccc4c(NC(=O)c5ccc(N6CCN(C(=O)NCCCCCCCCCCC(=O)N[C@H](C(=O)N7C[C@H](O)C[C@H]7C(=O)NCc7ccc(-c8scnc8C)cc7)C(C)(C)C)CC6)cc5)n[nH]c4c3)cn2)cc1C(F)(F)F,> 100 µM,> 100 µM,> 50 µM,> 100 µM,,
Cc1ccc(NC(=O)Cn2cc(-c3ccc4c(NC(=O)c5ccc(N6CCN(C(=O)NCCCCCCC(=O)N[C@H](C(=O)N7C[C@H](O)C[C@H]7C(=O)NCc7ccc(-c8scnc8C)cc7)C(C)(C)C)CC6)cc5)n[nH]c4c3)cn2)cc1C(F)(F)F,> 100 µM,> 100 µM,> 50 µM,> 100 µM,,
Cc1ccc(NC(=O)Cn2cc(-c3ccc4c(NC(=O)c5ccc(N6CCN(CCCCCC(=O)N[C@H](C(=O)N7C[C@H](O)C[C@H]7C(=O)NCc7ccc(-c8scnc8C)cc7)C(C)(C)C)CC6)cc5)n[nH]c4c3)cn2)cc1C(F)(F)F,> 50 µM,43.8 µM,> 50 µM,> 100 µM,,
Cc1ccc(NC(=O)Cn2cc(-c3ccc4c(NC(=O)c5ccc(N6CCN(C(=O)NCCCCC(=O)N[C@H](C(=O)N7C[C@H](O)C[C@H]7C(=O)NCc7ccc(-c8scnc8C)cc7)C(C)(C)C)CC6)cc5)n[nH]c4c3)cn2)cc1C(F)(F)F,> 100 µM,> 100 µM,> 50 µM,> 100 µM,> 3.33 µM,17.3%

# — ChEMBL document CHEMBL5247592, “Discovery of novel VEGFR-2-PROTAC degraders based on the localization of lysine residues via recruiting VHL for the treatment of gastric cancer” (Eur J Med Chem, 2022)
